Drawing on PubChem BioAssay (NCI), this text covers GI50 and TGI for 8 compounds.

For orientation: GI50 means the concentration giving 50% growth inhibition. For orientation: TGI means the concentration at which net growth stops. A high value points to lower sensitivity of the cells.

Several values for one entry are separate records, joined by “and”; a condition that tells them apart may be missing. Identical values can stand only once.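 Tested at 5 concentrations; 48 h exposure; 96-well plates; endpoints linearly interpolated, else capped at highest concentration. Abbreviation: GI50, concentration required for 50% inhibition of growth. TGI: concentration producing complete growth inhibition.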 Bounds are passed on as bounds.

Among the test systems are DU-145 prostate; U251 CNS; A549 NSCLC; SNB-19 CNS; M14 melanoma; IGROV1 ovarian; MDA-MB-435; UACC-257 melanoma; SW-620 colon; NCI-H522 lung.
Common to all, as to assay: DTP human tumour cell line panel, 48 h

With `C(=C\c1ccncc1)/c1ccncc1`, the GI50 in the assay with DU-145 prostate, with U251 CNS, with A549 NSCLC, in the assay on SNB-19 CNS, with M14 melanoma and with IGROV1 ovarian was above 100 µM throughout. Moreover, the GI50 in the assay with MDA-MB-435, in the assay with UACC-257 melanoma and in the assay on SW-620 colon was above 100 µM in each case. Also, the TGI in the assay with DU-145 prostate, in the assay with U251 CNS, in the assay with A549 NSCLC, with SNB-19 CNS, with M14 melanoma and in the assay with IGROV1 ovarian was above 100 µM each time. Further, the TGI in the assay on MDA-MB-435, in the assay on UACC-257 melanoma and with SW-620 colon was above 100 µM throughout.

On to `Cc1cc2c3c([n+](C)c4ccc(F)cc4c3c1)-c1cc(F)ccc1N2C`, for which the GI50 in the assay with DU-145 prostate is 17.9 µM; in the assay with U251 CNS it was 1.69 µM; with A549 NSCLC, 43.5 µM; with SNB-19 CNS, 4.13 µM; in the assay with NCI-H522 lung, 6.86 µM; in the assay with M14 melanoma, 23.4 µM. The GI50 in the assay on IGROV1 ovarian was 19.9 µM; in the assay on MDA-MB-435, 13.7 µM; in the assay on UACC-257 melanoma, 6.2 µM; in the assay with SW-620 colon, 13.5 µM. Moreover, the concentration for total growth inhibition (TGI) is above 100 µM in the assay on DU-145 prostate; above 100 µM with U251 CNS; above 100 µM in the assay on A549 NSCLC; above 100 µM in the assay with SNB-19 CNS; 29.4 µM with NCI-H522 lung; 62.9 µM in the assay with M14 melanoma. Further, the TGI was above 100 µM in the assay on IGROV1 ovarian, 55 µM in the assay on MDA-MB-435, 30.5 µM with UACC-257 melanoma and above 100 µM with SW-620 colon.

Consider `c1cc(C2CCCCC2)ccc1-c1cnc2nonc2n1`, for which the GI50 is 1.35 µM in the assay with DU-145 prostate; 1.18 µM in the assay with U251 CNS; 2.74 µM in the assay with A549 NSCLC; 1.46 µM in the assay with SNB-19 CNS; 0.548 µM in the assay on NCI-H522 lung; 0.499 µM in the assay with M14 melanoma. The GI50 in the assay on IGROV1 ovarian was 1.13 µM; with MDA-MB-435, 0.237 µM; in the assay on UACC-257 melanoma it was 1.28 µM; with SW-620 colon, 0.502 µM. The TGI in the assay with DU-145 prostate was 3.02 µM; in the assay on U251 CNS it was 2.44 µM; in the assay with A549 NSCLC, 12.2 µM; in the assay with SNB-19 CNS, 3.55 µM; with NCI-H522 lung it was 2.56 µM; with M14 melanoma, 2.16 µM. In addition, the TGI with IGROV1 ovarian amounted to 3.15 µM; with MDA-MB-435, 0.65 µM; in the assay on UACC-257 melanoma, 3.9 µM; with SW-620 colon, 2.45 µM.

As to `CC(=O)O[C@@H]1C2=C(C)C3(CC3)[C@@](C)(O)C(=O)C2=C[C@@]1(C)CO`, the 50% growth inhibitory concentration (GI50) in the assay on DU-145 prostate was 0.342 µM; in the assay on U251 CNS, 0.396 µM; in the assay with A549 NSCLC it was 1.05 µM; in the assay with SNB-19 CNS, 1.08 µM; in the assay on NCI-H522 lung, 0.496 µM; in the assay with M14 melanoma, 0.34 µM. Also, the GI50 in the assay with IGROV1 ovarian was 0.598 µM; with MDA-MB-435, 0.48 µM; in the assay on UACC-257 melanoma, 1.65 µM; in the assay with SW-620 colon, 0.355 µM. Also, the TGI with DU-145 prostate was 3.14 µM; with U251 CNS, above 36.1 µM; with A549 NSCLC, 24.2 µM; in the assay with SNB-19 CNS it was 9.6 µM; in the assay with NCI-H522 lung it was 4.44 µM; in the assay with M14 melanoma, 1.61 µM. Also, the TGI with IGROV1 ovarian was 5.08 µM; in the assay with MDA-MB-435, 1.72 µM; in the assay with UACC-257 melanoma it was 5.38 µM; in the assay on SW-620 colon, above 100 µM.

With `CC(C)(C)C(=O)c1c(C(F)(F)F)n([O-])c2cc(Cl)c(Cl)cc2[n+]1=O`, the concentration for 50% growth inhibition (GI50) in the assay on DU-145 prostate is 0.353 µM; with U251 CNS, 0.492 µM; in the assay with A549 NSCLC it was 0.952 µM; in the assay with SNB-19 CNS, 0.609 µM; in the assay with NCI-H522 lung, 0.538 µM; with M14 melanoma it was 0.998 µM. For the same compound, the GI50 in the assay on IGROV1 ovarian was 0.077 µM; with MDA-MB-435, 0.515 µM; in the assay with UACC-257 melanoma it was 1.28 µM; in the assay with SW-620 colon, 0.244 µM. The TGI in the assay on DU-145 prostate is 0.803 µM; in the assay on U251 CNS, 0.951 µM; in the assay with A549 NSCLC it was 2.39 µM; with SNB-19 CNS, 1.28 µM; in the assay on NCI-H522 lung, 1 µM; with M14 melanoma it was 2.57 µM. Besides, the TGI was found to be 0.213 µM with IGROV1 ovarian, 1.01 µM in the assay on MDA-MB-435, 2.86 µM with UACC-257 melanoma and 0.644 µM with SW-620 colon.

On to `NC(Cc1cccnn1)C(=O)O` (stereo not drawn), for which the TGI in the assay with DU-145 prostate, with U251 CNS, in the assay on A549 NSCLC, in the assay with SNB-19 CNS, in the assay on NCI-H522 lung and in the assay on M14 melanoma was above 100 µM each time. The TGI in the assay on IGROV1 ovarian, in the assay on MDA-MB-435, with UACC-257 melanoma and with SW-620 colon was above 100 µM in each case.

With `Oc1ccc(Cl)cc1Sc1cc(Cl)ccc1O`, the GI50 in the assay with DU-145 prostate was 3.83 µM; with U251 CNS it was 3.31 µM; in the assay on A549 NSCLC, 3.91 µM; in the assay on SNB-19 CNS it was 4.19 µM; in the assay on NCI-H522 lung it was 2.41 µM; with M14 melanoma it was 3.83 µM. In addition, the GI50 with IGROV1 ovarian is 3.52 µM; in the assay on MDA-MB-435 it was 2.79 µM; in the assay with UACC-257 melanoma, 2.83 µM; with SW-620 colon it was 4.02 µM. Also, the TGI in the assay on DU-145 prostate was 30.5 µM and 13.7 µM; in the assay with U251 CNS, 22.1 µM and 12.2 µM; with A549 NSCLC, 58.6 µM and 13.7 µM; in the assay on SNB-19 CNS, 57.1 µM and 16 µM; in the assay on NCI-H522 lung it was 13.6 µM and 9.17 µM; with M14 melanoma, 26 µM and 12.7 µM. Also, the TGI in the assay with IGROV1 ovarian is 32.5 µM and 9.5 µM; with MDA-MB-435 it was 23.9 µM and 9.08 µM; with UACC-257 melanoma, 19.3 µM and 6.91 µM; in the assay with SW-620 colon, 39.6 µM and 13.8 µM.

On to `C=C1C(=O)O[C@H]2[C@H]1CC/C(COC(=O)CCCCCCCC(=O)OC/C1=C/CC[C@@]3(C)O[C@H]3[C@H]3OC(=O)C(=C)[C@@H]3CC1)=C\CC[C@@]1(C)O[C@@H]21`, for which the GI50 with DU-145 prostate was 2.9 µM; with U251 CNS, 2.13 µM; with A549 NSCLC, 11.1 µM; in the assay with SNB-19 CNS it was 4.85 µM; in the assay with NCI-H522 lung it was 1.97 µM; in the assay on M14 melanoma, 1.77 µM. Also, the GI50 in the assay on IGROV1 ovarian was 2.22 µM; with MDA-MB-435, 2.59 µM; with UACC-257 melanoma it was 2.13 µM; in the assay with SW-620 colon, 1.46 µM. The TGI was 10.8 µM with DU-145 prostate; 5.37 µM with U251 CNS; 28.8 µM in the assay on A549 NSCLC; 19.2 µM in the assay with SNB-19 CNS; 3.92 µM with NCI-H522 lung; 4.11 µM in the assay on M14 melanoma. Further, the TGI with IGROV1 ovarian came out at 5.92 µM; with MDA-MB-435, 7.33 µM; with UACC-257 melanoma, 4.64 µM; in the assay on SW-620 colon it was 3.24 µM.
